# Results published in PubChem BioAssay AID1963986 (Molecular Pharmacology Branch, DTP, NCI, 2024).
# Test system: 171881-019-R-J1-PDC tumor spheroid viability
# Assay: Anticancer human tumor 171881-019-R-J1-PDC patient-derived invasive breast carcinoma cell line growth inhibition [PI3K]
# Settings: spheroids with HUVEC and MSC; for IC50: curve of first compound; for viability, T/C: stronger effect = lower value
# In short: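 Three cell types, namely tumor cells, endothelial cells and mesenchymal stem cells, formed each spheroid. Combinations with four PI3K inhibitors were screened at clinically achievable concentrations decreasing by half-log, and spheroid viability was recorded.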
# [1] = second compound 0.00316 µM, first compound 0.0316 µM
# [2] = second compound 0.00316 µM, first compound 0.1 µM
# [3] = second compound 0.00316 µM, first compound 0.316 µM
# [4] = second compound 0.00316 µM, first compound 1 µM
# [5] = second compound 0.00316 µM, first compound 3.16 µM
# [6] = second compound 0.00316 µM, first compound 10 µM
# [7] = second compound 0.01 µM, first compound 0.0316 µM
# [8] = second compound 0.01 µM, first compound 0.1 µM
# [9] = second compound 0.01 µM, first compound 0.316 µM
# [10] = second compound 0.01 µM, first compound 1 µM
# [11] = second compound 0.01 µM, first compound 3.16 µM
# [12] = second compound 0.01 µM, first compound 10 µM
# [13] = second compound 0.0316 µM, first compound 0.0316 µM
# [14] = second compound 0.0316 µM, first compound 0.1 µM
# [15] = second compound 0.0316 µM, first compound 0.316 µM
# [16] = second compound 0.0316 µM, first compound 1 µM
# [17] = second compound 0.0316 µM, first compound 3.16 µM
# [18] = second compound 0.0316 µM, first compound 10 µM
# [19] = second compound 0.1 µM, first compound 0.0316 µM
# [20] = second compound 0.1 µM, first compound 0.1 µM
# [21] = second compound 0.1 µM, first compound 0.316 µM
# [22] = second compound 0.1 µM, first compound 1 µM
# [23] = second compound 0.1 µM, first compound 3.16 µM
# [24] = second compound 0.1 µM, first compound 10 µM
# [25] = second compound 0.316 µM, first compound 0.0316 µM
# [26] = second compound 0.316 µM, first compound 0.1 µM
# [27] = second compound 0.316 µM, first compound 0.316 µM
# [28] = second compound 0.316 µM, first compound 1 µM
# [29] = second compound 0.316 µM, first compound 3.16 µM
# [30] = second compound 0.316 µM, first compound 10 µM
# [31] = second compound 1 µM, first compound 0.0316 µM
# [32] = second compound 1 µM, first compound 0.1 µM
# [33] = second compound 1 µM, first compound 0.316 µM
# [34] = second compound 1 µM, first compound 1 µM
# [35] = second compound 1 µM, first compound 3.16 µM
# [36] = second compound 1 µM, first compound 10 µM
# 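Note: spheroids exposed to compound for 7 days before viability read.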
# 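Throughout, for viability, T/C: 100% = DMSO vehicle-treated spheroids.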
smiles,measurement,setting,value
C#Cc1c(F)ccc2cc(O)cc(-c3ncc4c(N5CC6CCC(C5)N6)nc(OCC56CCCN5CC(F)C6)nc4c3F)c12 (centres undefined) + COc1c(OCCCN2CCOCC2)ccc2c3n(c(=NC(=O)c4cnc(N)nc4)nc12)CCN3,IC50,second compound 0.00316 µM,61.3 nM
same,IC50,second compound 0.01 µM,< 31.6 nM
same,IC50,second compound 0.0316 µM,< 31.6 nM
same,IC50,second compound 0.1 µM,< 31.6 nM
same,IC50,second compound 0.316 µM,< 31.6 nM
same,IC50,second compound 1 µM,< 31.6 nM
same,"viability, T/C",[1],53.6%
same,"viability, T/C",[2],48.2%
same,"viability, T/C",[3],30%
same,"viability, T/C",[4],20.7%
same,"viability, T/C",[5],15.8%
same,"viability, T/C",[6],12.8%
same,"viability, T/C",[7],38.2%
same,"viability, T/C",[8],31.8%
same,"viability, T/C",[9],20.4%
same,"viability, T/C",[10],15.1%
same,"viability, T/C",[11],10.3%
same,"viability, T/C",[12],9.69%
same,"viability, T/C",[13],18.9%
same,"viability, T/C",[14],14.8%
same,"viability, T/C",[15],10%
same,"viability, T/C",[16],6.62%
same,"viability, T/C",[17],5.52%
same,"viability, T/C",[18],4.3%
same,"viability, T/C",[19],6.23%
same,"viability, T/C",[20],4.84%
same,"viability, T/C",[21],3.8%
same,"viability, T/C",[22],3.03%
same,"viability, T/C",[23],2.87%
same,"viability, T/C",[24],1.74%
same,"viability, T/C",[25],1.68%
same,"viability, T/C",[26],1.75%
same,"viability, T/C",[27],1.34%
same,"viability, T/C",[28],1.08%
same,"viability, T/C",[29],0.99%
same,"viability, T/C",[30],0.17%
same,"viability, T/C",[31],0.8%
same,"viability, T/C",[32],0.83%
same,"viability, T/C",[33],0.78%
same,"viability, T/C",[34],0.83%
same,"viability, T/C",[35],0.68%
same,"viability, T/C",[36],0.29%
CC1(C)CCC(Nc2ncc(C(F)(F)F)c(-c3c[nH]c4c(P(C)(C)=O)c(C#N)ccc34)n2)CN1 (centres undefined) + COc1c(OCCCN2CCOCC2)ccc2c3n(c(=NC(=O)c4cnc(N)nc4)nc12)CCN3,IC50,second compound 0.00316 µM,4000 nM
same,IC50,second compound 0.01 µM,< 31.6 nM
same,IC50,second compound 0.0316 µM,< 31.6 nM
same,IC50,second compound 0.1 µM,< 31.6 nM
same,IC50,second compound 0.316 µM,< 31.6 nM
same,IC50,second compound 1 µM,< 31.6 nM
same,"viability, T/C",[1],51.9%
same,"viability, T/C",[2],57.2%
same,"viability, T/C",[3],60.6%
same,"viability, T/C",[4],69%
same,"viability, T/C",[5],63.2%
same,"viability, T/C",[6],9.56%
same,"viability, T/C",[7],44.6%
same,"viability, T/C",[8],49.3%
same,"viability, T/C",[9],50.9%
same,"viability, T/C",[10],55.3%
same,"viability, T/C",[11],45.5%
same,"viability, T/C",[12],3.97%
same,"viability, T/C",[13],23.4%
same,"viability, T/C",[14],27.9%
same,"viability, T/C",[15],27.1%
same,"viability, T/C",[16],33.2%
same,"viability, T/C",[17],23.2%
same,"viability, T/C",[18],1.05%
same,"viability, T/C",[19],11.1%
same,"viability, T/C",[20],11.1%
same,"viability, T/C",[21],11.3%
same,"viability, T/C",[22],12.7%
same,"viability, T/C",[23],7.29%
same,"viability, T/C",[24],0.37%
same,"viability, T/C",[25],2.05%
same,"viability, T/C",[26],1.65%
same,"viability, T/C",[27],1.41%
same,"viability, T/C",[28],1.53%
same,"viability, T/C",[29],0.65%
same,"viability, T/C",[30],0.12%
same,"viability, T/C",[31],1.55%
same,"viability, T/C",[32],0.66%
same,"viability, T/C",[33],0.6%
same,"viability, T/C",[34],0.51%
same,"viability, T/C",[35],1.51%
same,"viability, T/C",[36],0.25%
